Assay results taken from the supplement of paper PMC11962398.

What was measured:
BI-2493 [1] = compound: T1, C[C@H]1CNCCN1c1nccc(-c2noc3c2CCC[C@@]32CCCc3sc(N)c(C#N)c32)n1 [BI-2493]; conditions: 5 days
Description: (§1)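 PRISM pooled barcoded cancer cell line viability screen (Broad Institute) with BI-2493 at 8 doses in threefold dilutions from 0.00457 to 10 µmol/L, 5-day treatment; curves fitted per cell line. IC50 is undefined (placeholder) for resistant lines. AUC is capped at 1, and sensitivity is reported as 1 − AUC.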

BI-2493 [2] = compound: T1, BI-2493; assay: 1 - AUC of viability dose-response curve (sensitivity) (fraction); higher = more sensitive; conditions: 5 days
Description: as §1

Test System | IC50 of cell viability (BI-2493 [1]) [µM] | 1 - AUC of viability dose-response curve (BI-2493 [2])
NP2_CENTRAL_NERVOUS_SYSTEM | 9.05 | 0.085
NP3_CENTRAL_NERVOUS_SYSTEM | 8.21 | 0.0412
NP5_CENTRAL_NERVOUS_SYSTEM | 3.54 | 0.108
NUDHL1_HAEMATOPOIETIC_AND_LYMPHOID_TISSUE | 0.306 | 0.441
NUGC3_STOMACH | 2.68 | 0.236
NZOV9_OVARY | 8.42 | 0.155
OACM51_OESOPHAGUS | 6.83 | 0.0865
OAW42_OVARY | 5.86 | 0.104
OC314_OVARY | 5.96 | 0.113
OC316_OVARY | 5.73 | 0.113
OCIAML2_HAEMATOPOIETIC_AND_LYMPHOID_TISSUE | 3 | 0.209
OCIAML3_HAEMATOPOIETIC_AND_LYMPHOID_TISSUE | 2.15 | 0.23
OCIC4P_OVARY | 6.47 | 0.115
OCIC5X_OVARY | 9.57 | 0.0098
OCILY3_HAEMATOPOIETIC_AND_LYMPHOID_TISSUE | 7.48 | 0.0575
OCILY19_HAEMATOPOIETIC_AND_LYMPHOID_TISSUE | 3.56 | 0.19
OCILY132_HAEMATOPOIETIC_AND_LYMPHOID_TISSUE | 7.21 | 0.0816
OCIM1_HAEMATOPOIETIC_AND_LYMPHOID_TISSUE | 6.84 | 0.0683
OCIP5X_OVARY | 9.58 | 0.00791
OCUG1_BILIARY_TRACT | 4.77 | 0.132
OE19_OESOPHAGUS | 4.24 | 0.168
OE21_OESOPHAGUS | 3.82 | 0.112
OE33_OESOPHAGUS | 8.75 | 0.041
ONCODG1_OVARY | 8.36 | 0.0507

Test System | IC50 of cell viability (BI-2493 [1]) [µM] | 1 - AUC of viability dose-response curve (BI-2493 [2])
ONDA9_CENTRAL_NERVOUS_SYSTEM | 5.1 | 0.0973
ONS76_CENTRAL_NERVOUS_SYSTEM | 5.21 | 0.133
OSC20_UPPER_AERODIGESTIVE_TRACT | 9.09 | 0.165
OSRC2_KIDNEY | 4.48 | 0.0909
OUMS23_LARGE_INTESTINE | 8.65 | 0.165
OV17R_OVARY | 9.34 | 0.044
OV56_OVARY | > 10 | 0.0641
OVCAR8_OVARY | 9.61 | 0.00937
OVISE_OVARY | 4.17 | 0.105
OVK18_OVARY | 1.81 | 0.228
OVKATE_OVARY | 4.22 | 0.086
OVTOKO_OVARY | 4.32 | 0.123
OZ_BILIARY_TRACT | 6.81 | 0.0583
P12ICHIKAWA_HAEMATOPOIETIC_AND_LYMPHOID_TISSUE | 3.63 | 0.121
PA1_OVARY | 1.45 | 0.176
PACADD119_PANCREAS | 4.59 | 0.169
PACADD137_PANCREAS | 8.11 | 0.104
PACADD161_PANCREAS | 5.87 | 0.185
PANC1_PANCREAS | 4.69 | 0.128
PANC0203_PANCREAS | 1.16 | 0.327
PANC0327_PANCREAS | 7.84 | 0.138
PANC0403_PANCREAS | 0.501 | 0.379
PANC0504_PANCREAS | 1.18 | 0.286
